Reference: US20230143612A1 (Arbutus Biopharma Corporation, priority 2020, published 2023)

Molecular target: PD-L1 His protein / PD-1 Fc protein (Homo sapiens, UniProt Q9NZQ7)
Assay: HTRF Assay (PD-1/PD-L1 interaction)
Type: binding
Conditions: PD-L1 His 6 nM, PD-1 Fc 6 nM
Description: PD-L1 His protein was prepared and added at the final concentration of 6 nM in the White opaque 384 well plate (Corning cat #3824BC). PD-L1 small molecule inhibitors were diluted by 3-fold starting from 20 μM and a final concentration of 0.001 μM and added to the well. PD-1 Fc protein was added at the final concentration of 6 nM. PD-L1 His protein, PD-L1 small molecule inhibitors, and PD1 Fc proteins were added to the well in this order, with each 5 μl volume, and were incubated for 15 minutes at room temperature. PAb anti-Human IgG-XL665 (Cisbio, cat #61HFCXLA) and Mab anti-6HIS Tb cryptate Gold (Cisbio, cat #61HI2TLA) were mixed at 6.7 nM and 0.35 nM respectively, and total 5 μl volume of mixture was added to the well and incubated at room temperature for 1 hour. The plate was read using PerkinElmer Envision plate reader and data was analyzed by Prism 6 software.

Sequence of PD-L1 His protein / PD-1 Fc protein (Q9NZQ7 19-238 limits assumed): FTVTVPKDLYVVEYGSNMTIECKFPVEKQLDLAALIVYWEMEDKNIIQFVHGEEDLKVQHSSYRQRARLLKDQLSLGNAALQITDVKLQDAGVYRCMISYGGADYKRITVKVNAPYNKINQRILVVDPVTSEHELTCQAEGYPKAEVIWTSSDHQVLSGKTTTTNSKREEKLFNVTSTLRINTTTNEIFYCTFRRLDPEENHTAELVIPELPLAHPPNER

Row | Structure (SMILES) | IC50 [nM]
1 | Cc1c(-c2ccn3c(=O)c(CNC[C@@H]4CCC(=O)N4)cnc3c2)cccc1-c1cccc(-c2ccc3c(n2)N(C)CCC3NC[C@@H]2CCC(=O)N2)c1Cl (mixture of isomers) [Example 68, 8-(2′-Chloro-2-methyl-3′-(8-methyl-5-((((S)-5-oxopyrrolidin-2-yl)methyl)amino)-5,6,7,8-tetrahydro-1,8-naphthyridin-2-yl)-[1,1′-biphenyl]-3-yl)-3-(((((S)-5-oxopyrrolidin-2-yl)methyl)amino)methyl)-4H-pyrido[1,2-a]pyrimidin-4-one] | 11
2 | COc1nc(-c2cccc(-c3cccc(-c4ccc5c(n4)N(C)CCC5NCc4cncc(F)c4)c3Cl)c2Cl)ccc1CNC[C@@H]1CCC(=O)N1 (mixture of isomers) [Example 91, (5S)-5-((((6-(2,2′-Dichloro-3′-(5-(((5-fluoropyridin-3-yl)methyl)amino)-8-methyl-5,6,7,8-tetrahydro-1,8-naphthyridin-2-yl)-[1,1′-biphenyl]-3-yl)-2-methoxypyridin-3-yl)methyl)amino)methyl)pyrrolidin-2-one] | 180
3 | COc1nc(-c2cccc(-c3cccc(-c4ccn5c(=O)c(CNC[C@H]6C[C@H]6CO)cnc5c4)c3Cl)c2Cl)ccc1CNC[C@@H]1CCC(=O)N1 (racemic) [Example 225, 8-(2,2′-dichloro-3′-(6-methoxy-5-(((((S)-5-oxopyrrolidin-2-yl)methyl)-amino)-methyl)-pyridin-2-yl)-[1,1′-biphenyl]-3-yl)-3-(((((1S,2R)-2-(hydroxymethyl)-cyclopropyl)methyl)amino)methyl)-4H-pyrido[1,2-a]pyrimidin-4-one] | 0.2
4 | COc1nc(-c2cccc(-c3cccc(-c4ccc5c(n4)CCCC5NC[C@@H]4CCC(=O)N4)c3Cl)c2Cl)ccc1CNC[C@@H]1CCC(=O)N1 (mixture of isomers) [Example 235, (5S)-5-((((6-(2,2′-Dichloro-3′-(5-((((S)-5-oxopyrrolidin-2-yl)methyl)amino)-5,6,7,8-tetrahydroquinolin-2-yl)-[1,1′-biphenyl]-3-yl)-2-methoxypyridin-3-yl)methyl)amino)methyl)pyrrolidin-2-one] | 1
5 | COc1nc(-c2cccc(-c3cccc(-c4ccn5c(=O)c(CNC[C@@H]6C[C@H]6CO)cnc5c4)c3Cl)c2Cl)ccc1CNC[C@@H]1CCC(=O)N1 (racemic) [Example 245, 8-(2,2′-dichloro-3′-(6-methoxy-5-(((((S)-5-oxopyrrolidin-2-yl)-methyl)amino)-methyl)-pyridin-2-yl)-[1,1′-biphenyl]-3-yl)-3-(((((1R,2R)-2-(hydroxymethyl)-cyclopropyl)methyl)amino)-methyl)-4H-pyrido[1,2-a]pyrimidin-4-one] | 2.1
6 | COc1nc(-c2cccc(-c3cccc(-c4ccc5c(n4)CCCC5NC[C@H](C)O)c3Cl)c2Cl)ccc1CNC[C@@H]1CCC(=O)N1 (mixture of isomers) [Example 390, (5S)-5-((((6-(2,2′-Dichloro-3′-(5-(((S)-2-hydroxypropyl)amino)-5,6,7,8-tetrahydroquinolin-2-yl)-[1,1′-biphenyl]-3-yl)-2-methoxypyridin-3-yl)methyl)amino)methyl)pyrrolidin-2-one] | 6.5
7 | COc1nc(-c2cccc(-c3cccc(-c4cc5c(=O)n(C)c(CNCC6CC(F)(F)C(=O)N6)nn5c4)c3Cl)c2Cl)ccc1CNC[C@@H]1CCC(=O)N1 (mixture of isomers) [Example 450, 6-[2-Chloro-3-[2-chloro-3-[6-methoxy-5-[[[rac-(2S)-5-oxopyrrolidin-2-yl]methylamino]methyl]-2-pyridyl]phenyl]phenyl]-2-[[(4,4-difluoro-5-oxo-pyrrolidin-2-yl)methylamino]methyl]-3-methyl-pyrrolo[2,1-f][1,2,4]triazin-4-one] | 12
8 | COc1nc(-c2cccc(-c3cccc(-c4ccc5c(n4)N(C)CCC5NC[C@@H]4CCC(=O)N4)c3Cl)c2Cl)ccc1CNC[C@@H]1CCC(=O)N1 (single isomer, unassigned) [Example 52] | 0.8
9 | COc1nc(-c2cccc(-c3cccc(-c4ccc5c(n4)N(C)CCC5NC[C@@H]4CCC(=O)N4)c3Cl)c2Cl)ccc1CNC[C@@H]1CCC(=O)N1 (single isomer, unassigned) [Example 53] | 1.7
